{"source": "patent US6680058B1", "about": "“Compositions and methods for contraception in or sterilization of mammals” (Board of Supervisors of Louisiana State University and …, priority 1997, dated 2004)", "key": {"[1]": {"system": "sexually mature, Sprague-Dawley female rats", "assay": "Sexually mature Sprague-Dawley female rats, single intravenous treatment, necropsy 48 or 96 hours after treatment, H&E and PAS stain (Examples 15-22)", "type": "in vivo, rat", "settings": "334 μg in 200 μL saline (1.35 mM) i.v.; sacrificed 48 or 96 hours after injection", "procedure": "Eight sexually mature, Sprague-Dawley female rats were randomly assigned to one of eight treatments. Each group of rats received a single treatment intravenously, as described below. Rats were sacrificed and necropsied either 48 or 96 hours after treatment. The ovaries, uterus, pancreas, liver, spleen, lungs, heart, thyroid, and adrenal glands were fixed in 10% buffered formalin; sectioned; and stained with H&E (hematoxylin and eosin) stain; except that the pituitary glands were stained with PAS (periodic acid-Schiff) stain with no counter-stain. The treatments were selected so that each animal received an equimolar amount of the compound with which it was treated."}, "[2]": {"system": "bovine small luteal cells", "assay": "In vitro lysis of bovine small luteal cells, Trypan Blue exclusion and release of lactic dehydrogenase (Examples 25-32)", "type": "cell-based", "settings": "22 hr. incubation; for killing of small luteal cells: Trypan Blue exclusion", "procedure": "We studied in vitro lysis of bovine luteal cells with GnRH-hecate conjugate and with hecate-bLH conjugate (SEQ. ID NO. 12). (The bLH component of the conjugate is a 15-mer fragment of the beta chain of luteinizing hormone, SEQ. ID NO. 11). Small luteal cells were collected from cattle corpora lutea post-slaughter.\nSmall luteal cells in culture were incubated with one of the following treatments for 22 hours, and were then examined for viability using Trypan Blue exclusion and release of lactic dehydrogenase."}, "bovine granulosa cells": {"system": "bovine granulosa cells", "assay": "In vitro lysis of bovine granulosa cells (Examples 33-34)", "type": "cell-based", "settings": "hecate alone; compared with small luteal cells", "description": "We also studied in vitro lysis of bovine granulosa cells with GnRH-hecate conjugate and with hecate-bLH conjugate. Granulosa cells were isolated from bovine pre-ovulatory follicles. (Granulosa cells are hormonally active cells with numerous LH receptors.) Our experiments with granulosa cells were otherwise generally similar to those described above for Examples 25-32."}, "[3]": {"system": "pituitary basophilic (gonadotropic) cells", "assay": "Adult female rat pituitary gland sections in tissue culture, histology ten hours after treatment (Examples 1-6)", "type": "cell-based", "settings": "50 μM hecate in the medium; ten hours", "procedure": "The pituitary gland of an adult female rat was harvested and divided into six sections of approximately equal size. One section was placed in each of six wells containing tissue culture medium at 37° C. A different treatment was applied to each well, as described below. Ten hours after treatment, the tissue from each well was fixed, and the histology of each was examined microscopically."}, "[4]": {"system": "sexually mature, mixed breed, female rats", "assay": "Sexually mature female rats, double intravenous treatment, necropsy two weeks after treatment (Examples 9-14)", "type": "in vivo, rat", "settings": "Treatment 12: hecate 337 μg i.v., repeated after 24 hours; two weeks", "description": "Eighteen sexually mature, mixed breed, female rats were randomly assigned to one of six groups containing three rats each. Each group of rats received a double treatment intravenously, as described below. Two weeks after the treatment, the rats were sacrificed and necropsied. The reproductive and endocrine organs were sectioned, weighed, and examined histologically."}, "GnRH receptor [5]": {"target": "T1, GnRH receptor (Rattus norvegicus, UniProt P30969)", "T1 construct": "specifically displaced radiolabelled monoiodinated-GnRH from rat pituitary membranes; from tissue; host or cells: rat pituitary membranes", "T1 sequence (P30969 1-327)": "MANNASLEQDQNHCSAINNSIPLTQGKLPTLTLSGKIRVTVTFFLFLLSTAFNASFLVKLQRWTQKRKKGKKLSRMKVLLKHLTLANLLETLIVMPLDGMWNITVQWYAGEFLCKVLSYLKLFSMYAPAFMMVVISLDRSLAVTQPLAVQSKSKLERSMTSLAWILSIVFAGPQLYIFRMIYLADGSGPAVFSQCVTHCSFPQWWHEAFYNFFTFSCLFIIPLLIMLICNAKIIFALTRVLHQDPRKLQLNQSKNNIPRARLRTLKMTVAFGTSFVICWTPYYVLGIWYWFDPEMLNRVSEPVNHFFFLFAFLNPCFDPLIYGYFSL", "assay": "Displacement of radiolabelled monoiodinated-GnRH from rat pituitary membranes (Example 24)", "type": "binding", "description": "We also synthesized D-Lys^6GnRH (SEQ. ID NO. 13), so that hecate could be conjugated to the D-Lys^6, a position that could minimize interference with binding of the GnRH domain to the GnRH receptor. These synthetic peptides specifically displaced radiolabelled monoiodinated-GnRH from rat pituitary membranes."}, "GnRH receptor [6]": {"target": "T2, GnRH receptor (Homo sapiens, UniProt P30968)", "T2 sequence (P30968 1-328)": "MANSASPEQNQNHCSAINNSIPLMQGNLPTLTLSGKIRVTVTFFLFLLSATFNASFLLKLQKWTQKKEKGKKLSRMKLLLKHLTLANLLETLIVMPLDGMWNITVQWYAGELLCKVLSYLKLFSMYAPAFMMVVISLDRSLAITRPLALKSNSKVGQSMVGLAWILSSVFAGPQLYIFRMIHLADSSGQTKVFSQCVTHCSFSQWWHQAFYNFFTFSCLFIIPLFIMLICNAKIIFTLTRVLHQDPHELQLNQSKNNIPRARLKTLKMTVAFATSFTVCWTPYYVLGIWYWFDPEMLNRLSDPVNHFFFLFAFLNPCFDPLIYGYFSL", "settings": "reported; see U.S. Pat. No. 5,488,036; cited from earlier work"}, "granulosa cells": {"system": "granulosa cells", "assay": "Steroid hormone production by granulosa cells (data not shown)", "type": "cell-based, bovine", "description": "Stimulation of target cell hormone production was not required for cell lysis."}, "[7]": {"system": "cells of the flat oyster Ostrea edulis", "settings": "at the doses that reduced parasite viability; Morvan et al. 1994; cited from earlier work"}, "Bonamia ostreae": {"system": "Bonamia ostreae", "settings": "in vitro; Morvan et al. 1994; cited from earlier work"}}}
{"compound": "CC(C)C[C@H](NC(=O)CNC(=O)[C@H](Cc1ccc(O)cc1)NC(=O)[C@H](CO)NC(=O)[C@H](Cc1c[nH]c2ccccc12)NC(=O)[C@H](Cc1cnc[nH]1)NC(=O)[C@@H]1CCC(=O)N1)C(=O)N[C@@H](CCCNC(=N)N)C(=O)N1CCC[C@H]1C(=O)NCC(N)=O", "note": "[GnRH, gonadotropin-releasing hormone, reference compound]", "values": [{"measurement": "gross lesions in the organs", "setting": "[1]", "value": "No gross lesions"}]}
{"compound": "hecate: amphipathic lytic peptide, synthetic peptide analog of melittin, SEQ. ID NO. 2 (FALALKALKKALKKLKKALKKAL) [reference compound]", "values": [{"measurement": "cell death of small luteal cells", "setting": "[2]; 1 μM", "value": "did not differ significantly from negative control (media) or from bLH alone"}, {"measurement": "killing of small luteal cells", "setting": "[2]; 5 μM", "value": "approximately 50%"}, {"measurement": "killing of small luteal cells", "setting": "[2]; 10 μM", "value": "Significant killing"}, {"measurement": "susceptibility of granulosa cells to killing", "setting": "bovine granulosa cells", "value": "much more susceptible to killing by hecate alone than were the small luteal cells"}, {"measurement": "histology of pituitary tissue after treatment", "setting": "[3]", "value": "appeared normal"}, {"measurement": "ovarian function", "setting": "[4]", "value": "normal ovarian function"}]}
{"compound": "D-Lys^6GnRH-hecate: hecate conjugated to the D-Lys^6 of D-Lys^6GnRH", "values": [{"measurement": "displacement of radiolabelled monoiodinated-GnRH, compared with native mammalian GnRH", "setting": "GnRH receptor [5]; as measured by cpm of radioactivity", "value": "comparable to (and actually slightly greater than) displacement by native mammalian GnRH"}]}
{"compound": "CCNC(=O)[C@@H]1CCCN1C(=O)[C@H](CCCNC(=N)N)NC(=O)[C@H](CC(C)C)NC(=O)[C@@H](CC(C)C)NC(=O)[C@H](Cc1ccc(O)cc1)NC(=O)[C@H](CO)NC(=O)[C@H](Cc1c[nH]c2ccccc12)NC(=O)[C@H](Cc1c[nH]cn1)NC(=O)[C@@H]1CCC(=O)N1", "note": "[leuprolide]", "values": [{"measurement": "binding affinity to the GnRH receptor compared with GnRH", "setting": "GnRH receptor [6]", "value": "greater binding affinity to the GnRH receptor than does GnRH itself"}]}
{"compound": "CC(C)C[C@H](NC(=O)[C@@H](COC(C)(C)C)NC(=O)[C@H](Cc1ccc(O)cc1)NC(=O)[C@H](CO)NC(=O)[C@H](Cc1c[nH]c2ccccc12)NC(=O)[C@H](Cc1cnc[nH]1)NC(=O)[C@@H]1CCC(=O)N1)C(=O)N[C@@H](CCCNC(=N)N)C(=O)N1CCC[C@H]1C(=O)NNC(N)=O", "note": "[goserelin]", "values": [{"measurement": "binding affinity to the GnRH receptor compared with GnRH", "setting": "GnRH receptor [6]", "value": "greater binding affinity to the GnRH receptor than does GnRH itself"}]}
{"compound": "D-Lys^6GnRH: GnRH analog with D-Lys at position 6, SEQ. ID NO. 13", "values": [{"measurement": "specific displacement of the radiolabelled peptide relative to equimolar concentrations of GnRH", "setting": "GnRH receptor [5]; molar basis over a 1000-fold concentration range (n=6), native GnRH = 100%", "value": "187%±8%"}]}
{"compound": "15-mer fragment of the bLH subunit: 15-mer fragment of the beta chain of luteinizing hormone, SEQ. ID NO. 11 (SYAVALSCQCALCRR)", "values": [{"measurement": "production of steroid hormones (stimulus-coupled response)", "setting": "granulosa cells", "value": "did not initiate the production of steroid hormones"}]}
{"compound": "CCNC(=O)[C@@H]1CCCN1C(=O)[C@H](CCCNC(=N)N)NC(=O)[C@H](CC(C)C)NC(=O)[C@@H](COC(C)(C)C)NC(=O)[C@H](Cc1ccc(O)cc1)NC(=O)[C@H](CO)NC(=O)[C@H](Cc1c[nH]c2ccccc12)NC(=O)[C@H](Cc1cnc[nH]1)NC(=O)[C@@H]1CCC(=O)N1", "note": "[buserelin]", "values": [{"measurement": "binding affinity to the GnRH receptor compared with GnRH", "setting": "GnRH receptor [6]", "value": "greater binding affinity to the GnRH receptor than does GnRH itself"}]}
{"compound": "magainin 1: antimicrobial peptide magainin 1 (GIGKFLHSAGKFGKAFVGEIMKS; Magainin-1; UniProt P11006 37-59, looked up)", "values": [{"measurement": "effect on cells of the flat oyster Ostrea edulis", "setting": "[7]", "value": "did not affect"}, {"measurement": "viability of the parasite Bonamia ostreae", "setting": "Bonamia ostreae", "value": "selectively reduce the viability"}]}
